Counter-ions that a name gives are not always drawn. Square brackets hold non-standard residues; d marks the D form. Ends that are not written are not given here. Peptide text beside a SMILES is read from it.

Consider five compounds from publication PMC5577653, “Lactoferricin Peptides Increase Macrophages' Capacity To Kill Mycobacterium avium” (mSphere, 2017).

The test system of data set [1] is M. avium-infected macrophages. Particulars: M. avium 2447 SmT-infected BMM; 4 to 120 h; data not shown.
Data set [2] is described as follows: in vitro. Particulars: cell culture medium (supplemented DMEM).
Method: (§1) After 0, 0.5, 2, 4, 8, 24, 48, 72, and 96 h of incubation, a 40-µl aliquot was immediately injected for RP-HPLC analysis using an elution gradient of 0 to 100% acetonitrile in 0.05% aqueous trifluoroacetic acid (TFA) for 30 min at a flow rate of 1 ml/min.
(§2) At the end of 0, 0.5, 2, 4, 8, 24, 48, 72, and 96 h, an aliquot was taken from each mixture and analyzed by high-performance liquid chromatography (HPLC). The HPLC (Hitachi Elite Autosampler L-2200, pump L-2130, diode array detector L-2455, and column oven L-2300) was performed with a 150-mm-diameter C18 reverse-phase column (Merck). Each analysis involved an injection volume of 40 µl and elution with 0 to 100% acetonitrile in 0.05% aqueous trifluoroacetic acid (TFA) at a flow rate of 1 ml/min; the detection wavelength was set to 220 nm. The chromatograms were analyzed with EZChrom Elite software, and the peaks were integrated to extract the area.
Data set [3] concerns M. avium 2447 SmT. Description: Intramacrophagic M. avium growth, CFU assay in BALB/c BMM. The following applies: peptides 40 µM, ethambutol 7.2 µM, each alone, 5 days. Type of data set: cell-based, Mycobacterium avium. The method, then: Given that the peptides at up to 40 µM were not toxic to macrophages, we evaluated their effect on M. avium growing inside these cells. Bone marrow-derived macrophages were obtained from BALB/c mice and infected with M. avium 2447 smooth transparent variant (SmT). The different peptides were added at 40 µM, and ethambutol was added at 7.2 µM. After 5 days in culture, the number of intracellular bacteria per culture well was quantified in a CFU assay (Fig. 1D).
BMM at day 10 of culture were infected with 10^6 CFU of M. avium 2447 SmT for 4 h at 37°C in a 7% CO2 atmosphere. After incubation, cells were washed several times to remove noninternalized bacteria and reincubated with new medium with or without 40 µM peptide (76.9 µg/ml LFcin17–30 and D-LFcin17–30, 73.6 µg/ml LFcin17–30 all R, 80.3 µg/ml LFcin17–30 all R), alone or in combination with the antibiotic ethambutol (2 µg/ml or 7.2 µM ethambutol dihydrochloride; Sigma-Aldrich, St. Louis, MO, USA). Each condition was tested in triplicate. After 5 days in culture, the intracellular growth of M. avium 2447 SmT was evaluated by determining the number of CFU, as described previously ([75]).

Data set [4] deals with M. avium. The following applies: broth culture; cited from earlier work. An excerpt: In contrast, we now verify that only D-LFcin17–30 induces a significant decrease in mycobacterial growth inside macrophages. However, all peptides were effective when combined with the antibiotic ethambutol. The combination of antimicrobial peptides with conventional antibiotics is of great potential interest, as it might reduce the dosages of each ...

The conditions of data set [5]: 40 µM peptide in supplemented DMEM cell culture medium, 37°C, up to 96 h; RP-HPLC C18, UV 220 nm, peak area relative to time zero.
Method: as §1, §2

`CSCC[C@@H](NC(=O)[C@@H](CCCNC(=N)N)NC(=O)[C@@H](Cc1c[nH]c2ccccc12)NC(=O)[C@@H](CCC(N)=O)NC(=O)[C@@H](Cc1c[nH]c2ccccc12)NC(=O)[C@@H](CCCNC(=N)N)NC(=O)[C@@H](CCCNC(=N)N)NC(=O)[C@@H](CS)NC(=O)[C@@H](CCCCN)NC(=O)[C@H](N)Cc1ccccc1)C(=O)N[C@H](CCCCN)C(=O)N[C@H](CCCCN)C(=O)N[C@H](CC(C)C)C(=O)NCC(=O)O` [D-LFcin17–30] (H-[dF][dK][dC][dR][dR][dW][dQ][dW][dR][dM][dK][dK][dL]G-OH): the “levels of apoptosis or necrosis” value in data set [1] is given as “no significant changes”. This compound displayed a metabolised at 96 h, 40 µM in data set [2] not above 30%.

On to `CC[C@@H](CO)NCCN[C@@H](CC)CO` [ethambutol, ethambutol dihydrochloride], for which the “inhibition of intramacrophagic M. avium growth, compound alone” value in data set [3] was “None of the other peptides or ethambutol alone significantly inhibited M. avium growth”.

Regarding “FRCRRWQWRMRRLG [LFcin17–30 all R, LFcin17–30 variant with all lysines replaced with arginines]”, the “activity against M. avium in axenic cultures” value in data set [4] is reported as “all active”.

FKCRRWQWRMKKLG [LFcin17–30]: in data set [1], the “levels of apoptosis or necrosis” value is “no significant changes”. In data set [5], the “degradation of peptide after 96 h of incubation” value is “completely degraded”. Besides, the metabolised at 24 h, 40 µM in data set [2] is 50%.

For the compound “FKCKKWQWKMKKLG [LFcin17–30 all K, LFcin17–30 variant with all arginines replaced with lysines]”, in data set [4], the “activity against M. avium in axenic cultures” value is listed as “all active”.
